In brackets after ≈: the same amount, converted by molar mass. Activity calls are given as the source filed them. No cut-off for these calls is given here.
Tests used:
[1] = Resistance index, ratio of EC50 for wild type Hepatitis B virus to EC50 for Hepatitis B virus harboring […] transfected in human HepG2 cells measured after 6 days by qPCR analysis; type: functional; details: time 6 day
Hepatitis B virus [2] = experiment: Inhibition of HBV replication transfected in human HepG2.2.15 cells assessed as inhibition of encapsidated DNA formation in cell lysate incubated for 5 days by SDS-PAGE analysis; type: functional, organism-based; details: dose <= 10.0 µM, time 5.0 day
Hepatitis B virus [3] = experiment: Inhibition of HBV Cp150 dimer assembly assessed as formation of large abnormal particles at 20 uM incubated for 2 hrs by transmission electron microscopy
Hepatitis B virus [4] = experiment: Inhibition of HBV replication transfected in human HepG2.2.15 cells assessed as assessed as induction of total core protein degradation in cell lysate at upto 10 uM incubated for 5 days by SDS-PAGE analysis; type: functional, organism-based; details: time 5.0 day
Hepatitis B virus [5] = experiment: Inhibition of HBV replication transfected in human HepG2.2.15 cells assessed as assessed as induction of capsid degradation in cell lysate at upto 10 uM incubated for 5 days by SDS-PAGE analysis; type: functional, organism-based; details: time 5.0 day
[6] = Resistance index, ratio of EC50 for wild type Hepatitis B virus to EC50 for Hepatitis B virus harboring L180M/M204 V/S202G transfected in human HepG2 cells measured after 6 days by qPCR analysis; type: functional; details: time 6 day
[7] = Resistance index, ratio of EC50 for wild type Hepatitis B virus to EC50 for Hepatitis B virus harboring L180M/M204 V/M250 V/[…] transfected in human HepG2 cells measured after 6 days by qPCR analysis; type: functional; details: time 6 day
[8] = Resistance index, ratio of EC50 for wild type Hepatitis B virus to EC50 for Hepatitis B virus harboring L180M/M204 V/T184G/[…] transfected in human HepG2 cells measured after 6 days by qPCR analysis; type: functional; details: time 6 day
[9] = Resistance index, ratio of EC50 for wild type Hepatitis B virus to EC50 for Hepatitis B virus harboring A181T/N236T transfected in human HepG2 cells measured after 6 days by qPCR analysis; type: functional; details: time 6 day
[10] = Resistance index, ratio of EC50 for wild type Hepatitis B virus to EC50 for Hepatitis B virus harboring A181T transfected in human HepG2 cells measured after 6 days by qPCR analysis; type: functional; details: time 6 day
[11] = Resistance index, ratio of EC50 for wild type Hepatitis B virus to EC50 for Hepatitis B virus harboring A181V transfected in human HepG2 cells measured after 6 days by qPCR analysis; type: functional; details: time 6 day
[12] = Resistance index, ratio of EC50 for wild type Hepatitis B virus to EC50 for Hepatitis B virus harboring L180M/M204 V/A194T transfected in human HepG2 cells measured after 6 days by qPCR analysis; type: functional; details: time 6 day
[13] = Resistance index, ratio of EC50 for wild type Hepatitis B virus to EC50 for Hepatitis B virus harboring N236T transfected in human HepG2 cells measured after 6 days by qPCR analysis; type: functional; details: time 6 day
[14] = Resistance index, ratio of EC50 for wild type Hepatitis B virus to EC50 for Hepatitis B virus harboring A181V/N236T transfected in human HepG2 cells measured after 6 days by qPCR analysis; type: functional; details: time 6 day
[15] = Cytotoxicity against human HepDE19 cells assessed as reduction in cell viability measured after 5 days by CCK-8 method; type: functional; details: HepDE19, 120 h, time 5 day
[16] = Metabolic stability in mouse liver microsomes assessed as clearance at 1 uM preincubated for 10 mins and measured upto 30 mins in presence of NADPH generating system by LC-MS/MS analysis; type: ADME, Microsome; details: time < 40 min
[17] = Metabolic stability in human liver microsomes assessed as clearance at 1 uM preincubated for 10 mins and measured upto 30 mins in presence of NADPH generating system by LC-MS/MS analysis; type: ADME, Microsome; details: time < 40 min
[18] = Selectivity index, ratio of CC50 for human HepDE19 cells assessed as reduction in cell viability to EC50 for HBV infected in human HepG2.2.15 cells assessed as reduction in HBV DNA replication; type: toxicity, cell-based; details: HBV-infected HepG2.2.15 cells (EC50)
Hepatitis B virus [19] = experiment: Antiviral activity against HBV infected in human HepG2.2.15 cells assessed as reduction in HBV DNA replication measured after 5 days by qPCR analysis; type: functional, organism-based; details: HepG2.2.15, 120 h
[20] = Lyophilization solubility of the compound in phosphate buffer at pH 6.5 incubated for 1 hr under stirring condition and 2 hrs under shaking condition by HPLC-UV analysis; type: physicochemical

Structure (SMILES)	CC50 [15] [nM]	CLhep predicted at 1 µM [16] [mL/min/kg]	CLhep predicted at 1 µM [17] [mL/min/kg]	selectivity ratio [18]	EC50 (Hepatitis B virus [19]) [nM]	solubility at 3 h [20] [µg/mL]	also measured
Cc1cn([C@@H]2C[C@@H](O)[C@H](CO)O2)c(=O)[nH]c1=O [TELBIVUDINE]							Ratio EC50 [1]: >165
COC(=O)C1=C(CN2CC(F)(F)C[C@H]2C(=O)O)NC(c2nccs2)=N[C@H]1c1ccc(F)cc1Cl							inhibition (Hepatitis B virus [2]): Dose-Dependent Effect; Activity (Hepatitis B virus [3]): Active; inhibition (Hepatitis B virus [4]): Active; inhibition (Hepatitis B virus [5]): Active
C=C1[C@H](CO)[C@@H](O)C[C@@H]1n1cnc2c(=O)[nH]c(N)nc21 [ENTECAVIR ANHYDROUS]							Ratio EC50 [6]: 62.8; Ratio EC50 [7]: 712.4; Ratio EC50 [8]: 607.1
C[C@H](Cn1cnc2c(N)ncnc21)OCP(=O)(O)O [TENOFOVIR ANHYDROUS]							Ratio EC50 [9]: 3.3; Ratio EC50 [10]: 0.9; Ratio EC50 [11]: 1.5; Ratio EC50 [12]: 4.3; Ratio EC50 [13]: 3.3; Ratio EC50 [14]: 3.8
O=C(Nc1ccc(F)c(Cl)c1)N1CCn2ncc(-c3ccc(F)cn3)c2C1	35000	80	16	320	110	< 1	
C[C@H]1[C@H](C)n2ncc(N3CCCC3=O)c2CN1C(=O)Nc1cc(F)c(F)c(F)c1	> 100000	73	15	> 1920	52	525 (≈ 1290 µM)	
C[C@H]1Cn2ncc(N3CCOCC3=O)c2CN1C(=O)Nc1cc(F)c(F)c(F)c1	> 100000	29	6.2	> 1590	63	415 (≈ 1010 µM)	
